Test results from ChEMBL document CHEMBL4813997, “Discovery of 3-aryl substituted benzoxaboroles as broad-spectrum inhibitors of serine- and metallo-β-lactamases” (Bioorg Med Chem Lett, 2021).
≈ marks a conversion by molar mass, not a printed value.

Experiments:
[1] = Inhibition of bacterial Beta-lactamase VIM-1 (27 - 266) (unknown origin) expressed in Escherichia coli Transetta (DE3); parameters: species or system Bacteria
[2] = Inhibition of bacterial Beta-lactamase SFH-1 (3 - 234) expressed in Escherichia coli Transetta (DE3); parameters: species or system Bacteria
Beta-lactamase TEM = Beta-lactamase TEM (Bacteria, UniProt P62593); experiment: Inhibition of bacterial Beta-lactamase TEM-1 (24 - 286) (unknown origin) expressed in Escherichia coli Transetta (DE3)
[3] = Inhibition of bacterial Beta-lactamase AmpC (20 - 377) (unknown origin) expressed in Escherichia coli Transetta (DE3); parameters: species or system Bacteria
Klebsiella pneumoniae [4] = experiment: Potentiation of meropenem-induced antibacterial activity against AmpC/TEM-1 producing Klebsiella pneumoniae C692 assessed as MIC of meropenem at 100 uM; assay type: functional
[5] = Inhibition of bacterial New Delhi metallo-beta-lactamase 1 (1- 270) (unknown origin) expressed in Escherichia coli Transetta (DE3); parameters: species or system Bacteria
[6] = Inhibition of bacterial Beta-lactamase KPC-2 (29 - 289) (unknown origin) expressed in Escherichia coli Transetta (DE3); parameters: species or system Bacteria
HEK-293T = experiment: Cytotoxicity against human HEK293T cells assessed as reduction in cell viability at 10 to 100 uM; assay type: cell-based; conditions: dose 10-100 µM
Escherichia coli [7] = experiment: Potentiation of meropenem-induced antibacterial activity against KPC-2 producing Escherichia coli 11119 assessed as MIC of meropenem at 10 uM; assay type: functional
Escherichia coli [8] = experiment: Potentiation of meropenem-induced antibacterial activity against KPC-2 producing Escherichia coli BAA2340 assessed as MIC of meropenem at 100 uM; assay type: functional
Escherichia coli [9] = experiment: Potentiation of meropenem-induced antibacterial activity against KPC-2 producing Escherichia coli BAA2340 assessed as MIC of meropenem at 10 uM; assay type: functional
Escherichia coli [10] = experiment: Potentiation of meropenem-induced antibacterial activity against KPC-2 producing Escherichia coli 11119 assessed as MIC of meropenem at 100 uM; assay type: functional
Klebsiella pneumoniae [11] = experiment: Potentiation of meropenem-induced antibacterial activity against AmpC/TEM-1 producing Klebsiella pneumoniae C692 assessed as MIC of meropenem at 10 uM; assay type: functional
[12] = Inhibition of bacterial Beta-lactamase OXA-48 (1 - 265) (unknown origin) expressed in Escherichia coli Transetta (DE3); parameters: species or system Bacteria
Escherichia coli [13] = experiment: Antibacterial activity against Escherichia coli ATCC 25922; assay type: functional
Escherichia coli [14] = experiment: Antibacterial activity against KPC-2 producing Escherichia coli BAA2340; assay type: functional
Klebsiella pneumoniae [15] = experiment: Antibacterial activity against AmpC/TEM-1 producing Klebsiella pneumoniae C692; assay type: functional
Escherichia coli [16] = experiment: Antibacterial activity against KPC-2 producing Escherichia coli 11119; assay type: functional
Beta-lactamase = Beta-lactamase (Klebsiella pneumoniae, UniProt Q93LQ9); experiment: Inhibition of Klebsiella pneumoniae KPC-2
Chain of Beta-lactamase (Q93LQ9 whole entry): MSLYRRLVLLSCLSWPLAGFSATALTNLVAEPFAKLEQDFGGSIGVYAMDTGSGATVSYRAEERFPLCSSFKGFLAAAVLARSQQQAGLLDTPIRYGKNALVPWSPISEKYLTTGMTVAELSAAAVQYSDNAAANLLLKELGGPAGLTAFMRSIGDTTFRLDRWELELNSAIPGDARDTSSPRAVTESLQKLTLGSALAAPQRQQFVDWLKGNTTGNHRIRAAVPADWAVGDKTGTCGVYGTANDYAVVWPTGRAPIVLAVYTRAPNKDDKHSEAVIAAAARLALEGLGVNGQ

Chain of Beta-lactamase TEM (P62593 whole entry): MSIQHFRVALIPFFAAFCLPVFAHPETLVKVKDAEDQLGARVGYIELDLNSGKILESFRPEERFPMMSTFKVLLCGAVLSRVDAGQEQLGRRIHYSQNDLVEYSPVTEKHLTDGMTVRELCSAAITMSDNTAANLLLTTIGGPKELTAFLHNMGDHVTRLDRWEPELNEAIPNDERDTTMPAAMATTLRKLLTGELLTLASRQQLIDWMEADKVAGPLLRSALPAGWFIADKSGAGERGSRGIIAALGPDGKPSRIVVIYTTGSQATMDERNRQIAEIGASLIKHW

Molecule `CN(C)c1ccc(C2OB(O)c3ccc(Cl)cc32)cc1` (stereo unspecified) has an IC50 [1] greater than 100 µM, an IC50 [2] of 3.81 µM and an IC50 (Beta-lactamase TEM) of 1.54 µM. The IC50 [3] was 22.7 µM, the MIC (Klebsiella pneumoniae [4]) was greater than 128 µg/mL and the IC50 [5] was 9.05 µM. For the same molecule, the IC50 [6] was 0.086 µM, the Activity (HEK-293T) was “Non-Toxic” and the MIC (Escherichia coli [7]) was 32 µg/mL. The MIC (Escherichia coli [8]) was 0.5 µg/mL, the MIC (Escherichia coli [9]) was 2 µg/mL and the MIC (Escherichia coli [10]) was 8 µg/mL. The MIC (Klebsiella pneumoniae [11]) was greater than 128 µg/mL and the IC50 [12] was 2.34 µM.
`OB1OC(c2c[nH]c3ccccc23)c2c(F)cccc21` (stereo unspecified) gave an IC50 [1] of 89.7 µM, an IC50 [2] of 2.17 µM and an IC50 (Beta-lactamase TEM) greater than 100 µM. For the same molecule, the IC50 [3] was 10.8 µM, the IC50 [5] was 25.4 µM and the IC50 [6] was 6.56 µM. The IC50 [12] was greater than 100 µM.
`OB1OC(c2c[nH]c3ccc(Br)cc23)c2ccc(F)cc21` (stereo unspecified) gave an IC50 [1] greater than 100 µM, an IC50 [2] greater than 100 µM and an IC50 (Beta-lactamase TEM) greater than 100 µM. For the same molecule, the IC50 [3] was greater than 100 µM, the IC50 [5] was greater than 100 µM and the IC50 [6] was greater than 100 µM. For the same molecule, the IC50 [12] was greater than 100 µM.
With `COc1ccc2c(c1)C(c1ccc(N(C)C)cc1)OB2O` (stereo unspecified) the IC50 [1] was greater than 100 µM, the IC50 [2] was 4.23 µM and the IC50 (Beta-lactamase TEM) was 1.54 µM. The IC50 [3] was 11.4 µM, the IC50 [5] was 38.4 µM and the IC50 [6] was 0.18 µM. The IC50 [12] was 2.93 µM.
`CNc1ccc(C2OB(O)c3cccc(F)c32)cc1` (stereo unspecified) showed an IC50 [1] greater than 100 µM, an IC50 [2] of 1.15 µM and an IC50 (Beta-lactamase TEM) of 37.9 µM. It also gave an IC50 [3] of 15.3 µM, an IC50 [5] of 51.4 µM and an IC50 [6] of 2.41 µM. It also gave an IC50 [12] of 6.49 µM.
`OB1OC(c2c[nH]c3ccc(Br)cc23)c2ccccc21` (stereo unspecified) showed an IC50 [1] of 13.1 µM, an IC50 [2] of 14.9 µM and an IC50 (Beta-lactamase TEM) greater than 100 µM. For the same molecule, the IC50 [3] was 25.9 µM, the IC50 [5] was 24 µM and the IC50 [6] was 9.43 µM. It also gave an IC50 [12] greater than 100 µM.
Work on `OB1OC(c2ccccc2)c2ccccc21` (stereo unspecified) yielded an IC50 [1] of 73.8 µM, an IC50 [2] of 3.56 µM and an IC50 (Beta-lactamase TEM) of 4.46 µM. For the same molecule, the IC50 [3] was 29.2 µM, the IC50 [5] was 89 µM and the IC50 [6] was 1 µM. For the same molecule, the IC50 [12] was 8.67 µM.
For `CN(C)c1ccc(C2OB(O)c3ccccc32)cc1` (stereo unspecified), the IC50 [1] was 39.4 µM, the IC50 [2] was 2.52 µM and the IC50 (Beta-lactamase TEM) was 0.73 µM. For the same molecule, the IC50 [3] was 8.27 µM, the IC50 [5] was 8.44 µM and the IC50 [6] was 0.18 µM. The IC50 [12] was 2.41 µM.
With `OB1OC(c2cccs2)c2ccccc21` (stereo unspecified) the IC50 [1] was 17.4 µM, the IC50 [2] was 2.47 µM and the IC50 (Beta-lactamase TEM) was 6.97 µM. The IC50 [3] was 18.7 µM, the MIC (Klebsiella pneumoniae [4]) was greater than 128 µg/mL and the IC50 [5] was 22.4 µM. For the same molecule, the IC50 [6] was 0.41 µM, the Activity (HEK-293T) was “Non-Toxic” and the MIC (Escherichia coli [7]) was 32 µg/mL. It also gave an MIC (Escherichia coli [8]) of 0.5 µg/mL, an MIC (Escherichia coli [9]) of 2 µg/mL and an MIC (Escherichia coli [10]) of 2 µg/mL. The MIC (Klebsiella pneumoniae [11]) was greater than 128 µg/mL and the IC50 [12] was 5.45 µM.
In the case of `OB1OC(c2c[nH]c3ccc(OCc4ccccc4)cc23)c2ccccc21` (stereo unspecified), the IC50 [1] is reported as greater than 100 µM, the IC50 [2] is reported as greater than 100 µM and the IC50 (Beta-lactamase TEM) is reported as greater than 100 µM. It also gave an IC50 [3] greater than 100 µM, an IC50 [5] greater than 100 µM and an IC50 [6] greater than 100 µM. It also gave an IC50 [12] greater than 100 µM.
Molecule `CNc1ccc(C2OB(O)c3ccccc32)cc1` (stereo unspecified) has an IC50 [1] of 26.4 µM, an IC50 [2] of 3.02 µM and an IC50 (Beta-lactamase TEM) of 3.2 µM. The IC50 [3] was 13.9 µM, the IC50 [5] was 57.4 µM and the IC50 [6] was 0.1 µM. The IC50 [12] was 2.37 µM.
Molecule `C[C@@H](O)[C@H]1C(=O)N2C(C(=O)O)=C(S[C@@H]3CN[C@H](C(=O)N(C)C)C3)[C@H](C)[C@H]12` [MEROPENEM] has an MIC (Escherichia coli [13]) of 0.06 µg/mL (≈ 0.156 µM), an MIC (Escherichia coli [14]) of 16 µg/mL (≈ 41.7 µM) and an MIC (Klebsiella pneumoniae [15]) greater than 128 µg/mL. The MIC (Escherichia coli [16]) was 64 µg/mL (≈ 167 µM).
With `OB1OC(c2c[nH]c3ccc(Cl)cc23)c2ccccc21` (stereo unspecified) the IC50 [2] was 18.6 µM, the IC50 (Beta-lactamase TEM) was greater than 100 µM and the IC50 [3] was 5.66 µM. The IC50 [5] was greater than 100 µM, the IC50 [6] was 0.2 µM and the IC50 [12] was greater than 100 µM.
Molecule `OB1OC(c2c[nH]c3ccccc23)c2ccccc21` (stereo unspecified) has an IC50 [1] of 15.2 µM, an IC50 [2] of 8.5 µM and an IC50 (Beta-lactamase TEM) greater than 100 µM. The IC50 [3] was 3.66 µM, the IC50 [5] was 6.04 µM and the IC50 [6] was 2.58 µM. It also gave an IC50 [12] greater than 100 µM.
In the case of `OB1OC(c2ccc(N3CCCCC3)cc2)c2ccccc21` (stereo unspecified), the IC50 [1] is reported as 18.4 µM, the IC50 [2] is reported as 5.27 µM and the IC50 (Beta-lactamase TEM) is reported as 33 µM. It also gave an IC50 [3] of 32.2 µM, an IC50 [5] of 11.7 µM and an IC50 [6] of 0.51 µM. It also gave an IC50 [12] of 3.44 µM.
With `CN(C)c1ccc(C2OB(O)c3ccc(F)cc32)cc1` (stereo unspecified) the IC50 [1] was greater than 100 µM, the IC50 [2] was 3.64 µM and the IC50 (Beta-lactamase TEM) was 5.68 µM. For the same molecule, the IC50 [3] was 39.3 µM, the IC50 [5] was 11.2 µM and the IC50 [6] was 0.35 µM. The IC50 [12] was 3.58 µM.
Work on `CN(C)c1ccc(C2OB(O)c3cc(Cl)ccc32)cc1` (stereo unspecified) yielded an IC50 [1] greater than 100 µM, an IC50 [2] of 0.47 µM and an IC50 (Beta-lactamase TEM) of 4.34 µM. It also gave an IC50 [3] of 3.6 µM, an IC50 [5] of 61.7 µM and an IC50 [6] of 0.81 µM. It also gave an IC50 [12] of 1.96 µM.
Molecule `OB1OC(c2cn(Cc3ccccc3)c3ccccc23)c2ccccc21` (stereo unspecified) has an IC50 [1] of 10.6 µM, an IC50 [2] of 9.6 µM and an IC50 (Beta-lactamase TEM) greater than 100 µM. The IC50 [3] was greater than 100 µM, the IC50 [5] was 15.9 µM and the IC50 [6] was greater than 100 µM. The IC50 [12] was greater than 100 µM.
Work on `OB1OC(c2c[nH]c3ccc(F)cc23)c2ccccc21` (stereo unspecified) yielded an IC50 [1] of 62.5 µM, an IC50 [2] of 6.58 µM and an IC50 (Beta-lactamase TEM) of 88.8 µM. For the same molecule, the IC50 [3] was 7.27 µM, the IC50 [5] was greater than 100 µM and the IC50 [6] was 0.36 µM. It also gave an IC50 [12] greater than 100 µM.
Molecule `N#Cc1ccc(Oc2ccc3c(c2)COB3O)cc1` [CRISABOROLE] has an IC50 (Beta-lactamase) of 0.67 µM.
In the case of `CN(C)c1ccc(C2OB(O)c3cc4c(cc32)OCO4)cc1` (stereo unspecified), the IC50 [1] is reported as 51 µM, the IC50 [2] is reported as 2.77 µM and the IC50 (Beta-lactamase TEM) is reported as 1.15 µM. The IC50 [3] was 5.23 µM, the IC50 [5] was 16.6 µM and the IC50 [6] was 0.76 µM. The IC50 [12] was 6.4 µM.
`NC(=O)[C@@H]1CC[C@@H]2CN1C(=O)N2OS(=O)(=O)O` [AVIBACTAM] gave an IC50 [1] greater than 100 µM, an IC50 [2] of 0.025 µM and an IC50 [3] of 0.024 µM. It also gave an IC50 [5] greater than 100 µM, an IC50 [6] of 0.0037 µM and an IC50 [12] of 0.17 µM.
`CN(C)c1ccc(C2OB(O)c3cccc(F)c32)cc1` (stereo unspecified) showed an IC50 [1] greater than 100 µM, an IC50 [2] of 1.83 µM and an IC50 (Beta-lactamase TEM) of 20.7 µM. It also gave an IC50 [3] of 15.1 µM, an IC50 [5] of 25.6 µM and an IC50 [6] of 1.91 µM. It also gave an IC50 [12] of 7.48 µM.
Molecule `Cc1ccc2[nH]cc(C3OB(O)c4ccccc43)c2c1` (stereo unspecified) has an IC50 [1] of 16.2 µM, an IC50 [2] of 19.4 µM and an IC50 (Beta-lactamase TEM) greater than 100 µM. It also gave an IC50 [3] of 8.52 µM, an IC50 [5] of 68 µM and an IC50 [6] of 0.22 µM. It also gave an IC50 [12] greater than 100 µM.
